The values that follow are results of earlier work, collected in patent US20240156825A1, “USE OF SELECTIVE VEGFR2 AND FGFR1 INHIBITORS” (Fountain Therapeutics Inc., priority 2022, published 2024).

The structures appear in SMILES notation. Like-named read-outs stand apart in the source and are kept apart here.

In one data set the test system is any gene target. The settings on record: next lowest IC50 value to any gene target, read-out: Min IC50_μM, cited from earlier work.
The next data set deals with VEGFR2 (Homo sapiens, UniProt P35968). The settings on record: reported IC50 to VEGFR2, read-out: VEGFR2 IC50_μM, cited from earlier work.
Chain of VEGFR2 (P35968 20-1356, species assumed): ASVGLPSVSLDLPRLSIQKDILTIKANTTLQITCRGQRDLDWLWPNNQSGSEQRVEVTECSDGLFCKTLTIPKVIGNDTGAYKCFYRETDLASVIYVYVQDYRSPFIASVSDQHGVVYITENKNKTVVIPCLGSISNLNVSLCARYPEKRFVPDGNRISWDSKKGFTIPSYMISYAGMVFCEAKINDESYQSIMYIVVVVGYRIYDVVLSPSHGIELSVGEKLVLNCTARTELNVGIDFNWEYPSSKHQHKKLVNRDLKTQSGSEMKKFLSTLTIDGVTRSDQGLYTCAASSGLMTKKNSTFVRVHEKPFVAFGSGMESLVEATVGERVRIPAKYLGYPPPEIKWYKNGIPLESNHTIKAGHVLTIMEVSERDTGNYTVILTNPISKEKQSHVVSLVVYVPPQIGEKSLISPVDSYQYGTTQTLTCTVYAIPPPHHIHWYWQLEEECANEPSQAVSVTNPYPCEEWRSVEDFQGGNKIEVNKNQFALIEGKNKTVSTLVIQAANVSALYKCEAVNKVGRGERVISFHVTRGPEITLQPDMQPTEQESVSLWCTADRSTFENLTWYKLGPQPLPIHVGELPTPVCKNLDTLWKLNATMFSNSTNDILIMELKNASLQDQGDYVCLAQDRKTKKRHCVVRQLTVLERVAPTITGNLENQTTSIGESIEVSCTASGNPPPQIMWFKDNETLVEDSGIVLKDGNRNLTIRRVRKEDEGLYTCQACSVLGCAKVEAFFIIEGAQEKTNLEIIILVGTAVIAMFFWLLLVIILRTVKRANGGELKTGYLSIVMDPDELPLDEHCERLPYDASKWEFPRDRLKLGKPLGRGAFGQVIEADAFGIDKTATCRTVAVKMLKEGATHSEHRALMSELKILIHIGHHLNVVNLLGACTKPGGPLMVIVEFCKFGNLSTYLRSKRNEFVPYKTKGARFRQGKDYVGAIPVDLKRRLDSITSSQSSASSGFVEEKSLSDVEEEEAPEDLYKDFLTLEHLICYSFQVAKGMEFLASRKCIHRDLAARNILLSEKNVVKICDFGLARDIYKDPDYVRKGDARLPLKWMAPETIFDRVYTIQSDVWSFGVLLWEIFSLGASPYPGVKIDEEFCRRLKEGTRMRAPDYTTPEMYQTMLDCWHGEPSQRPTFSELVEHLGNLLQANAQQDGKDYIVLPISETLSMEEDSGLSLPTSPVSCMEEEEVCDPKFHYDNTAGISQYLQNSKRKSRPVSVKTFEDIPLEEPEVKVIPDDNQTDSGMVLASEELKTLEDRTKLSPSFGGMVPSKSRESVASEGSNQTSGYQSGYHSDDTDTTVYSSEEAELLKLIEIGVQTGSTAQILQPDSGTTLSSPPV
The mark [1] stands for this setting: Table 3, selective inhibitors of VEGFR2.

Turning to `COc1cc2c(Nc3ccc(Cl)c(Cl)c3F)ncnc2cc1OC[C@@H]1CN2CCC[C@H]2C(=O)N1C` [compound 53630920], the IC50 in the data set on any gene target (Table 3) and on VEGFR2 (setting [1]) was 50 nM each time.
For `COc1cc2c(Nc3ccc(Cl)c(Cl)c3F)ncnc2cc1OC[C@@H]1CN2CCC[C@H]2C(=O)N1` [compound 53630923], the IC50 in the data set on any gene target (Table 3) and at VEGFR2 (setting [1]) was 50 nM each time.
With `COc1cc2c(Nc3ccc(Cl)c(Cl)c3F)ncnc2cc1OC[C@@H]1CN2CCC[C@@H]2C(=O)N1` [compound 53630924], the IC50 in the data set on any gene target (Table 3) and on VEGFR2 (setting [1]) was 50 nM throughout.
For the molecule `COc1cc2c(Nc3ccc(Cl)c(Cl)c3)ncnc2cc1OCc1nc2c(s1)CNCC2` [compound 53630967], the IC50 with any gene target (Table 3) and on VEGFR2 (setting [1]) was 50 nM in each case.
As to `COc1cc2c(Nc3ccc(Cl)c(Cl)c3)ncnc2cc1OCc1csc(C2CCNCC2)n1` [compound 53630972], the IC50 in the data set on any gene target (Table 3) and at VEGFR2 (setting [1]) was 50 nM in each case.
`CN1CCC(COc2ccc3c(Nc4ccc(NC(=O)Nc5cccc(F)c5)cc4)ncnc3c2)CC1` [compound 56835147]: the IC50 was 9.6 nM in the data set on any gene target and 5.5 nM at VEGFR2.
For `Nc1c(-c2ccc(F)cc2)c(-c2ccncc2)nn1-c1c(Cl)cc(Cl)cc1Cl` [compound 56924694], the IC50 in the data set on any gene target is 31 nM; on VEGFR2 it was 29 nM.
For `COc1ccc(-c2cnc3cncc(Nc4ccc(N5CCCCC5)cc4)c3n2)cc1` [compound 57332844], the IC50 with any gene target is 2270 nM; at VEGFR2, 2050 nM.
Take `COc1cc2c(Nc3cc(Cl)c(Cl)cc3F)ncnc2cc1OCC1CN(C)CCO1` (stereo not shown) [compound 57802547]: the IC50 in the data set with any gene target (Table 3) and at VEGFR2 (setting [1]) was 50 nM in each case.
In the case of `COc1cc2c(Nc3ccc(C)c(Br)c3)ncnc2cc1OCC1CN(C)CCO1` (stereo not shown) [compound 57802550], the IC50 in the data set on any gene target (Table 3) and at VEGFR2 (setting [1]) was 50 nM in each case.
In the case of `COc1cc2c(Nc3ccc(Cl)c(Cl)c3)ncnc2cc1OCC1CN(S(C)(=O)=O)CCCO1` (stereo not shown) [compound 57802556], the IC50 in the data set on any gene target (Table 3) and on VEGFR2 (setting [1]) was 50 nM in each case.
As for `COc1cc2c(Nc3ccc(Br)c(F)c3F)ncnc2cc1OCC1CN(C)CCO1` (stereo not shown) [compound 57802560], the IC50 in the data set on any gene target (Table 3) and on VEGFR2 (setting [1]) was 50 nM in each case.
`CCN=C(NC#N)N1CCOC(COc2cc3ncnc(Nc4ccc(Cl)c(Cl)c4)c3cc2OC)C1` (stereo not shown) [compound 57802565]: the IC50 in the data set on any gene target (Table 3) and on VEGFR2 (setting [1]) was 50 nM in each case.
Take `COc1cc2c(Nc3ccc(Br)c(Cl)c3F)ncnc2cc1OCC1CN(C)CCO1` (stereo not shown) [compound 57802566]: the IC50 in the data set on any gene target (Table 3) and at VEGFR2 (setting [1]) was 50 nM in each case.
For `COc1cc2c(Nc3ccc(Cl)c(Cl)c3F)ncnc2cc1OC[C@@H]1CN(C)CC(=O)N1C` [compound 57802574], the IC50 in the data set with any gene target (Table 3) and at VEGFR2 (setting [1]) was 50 nM in each case.
Take `CC(C)Oc1cc2c(Nc3ccc(Cl)c(Cl)c3)ncnc2cc1OCC1CNCCO1` (stereo not shown) [compound 57802576]: the IC50 in the data set with any gene target (Table 3) and at VEGFR2 (setting [1]) was 50 nM each time.
For the molecule `COc1cc2c(Nc3ccc(Br)c(Cl)c3Cl)ncnc2cc1OCC1CN(C)C(C)(C)CO1` (stereo not shown) [compound 57802578], the IC50 with any gene target and at VEGFR2 was 50 nM each time.
As for `COc1cc2c(Nc3ccc(Cl)c(Cl)c3)ncnc2cc1OC[C@@H]1CN2CCC[C@@H]2CO1` [compound 57802582], the IC50 with any gene target (Table 3) and on VEGFR2 (setting [1]) was 50 nM throughout.
`COc1cc2c(Nc3ccc(Cl)c(Cl)c3C)ncnc2cc1OCC1CN(C)CCO1` (stereo not shown) [compound 57802584]: the IC50 with any gene target (Table 3) and at VEGFR2 (setting [1]) was 50 nM each time.
`COc1cc2c(Nc3ccc(Cl)c(Cl)c3F)ncnc2cc1OCC1CN(C)CCO1` (stereo not shown) [compound 57802591]: the IC50 in the data set with any gene target (Table 3) and at VEGFR2 (setting [1]) was 50 nM throughout.
On to `COc1cc2c(Nc3cc(Cl)c(Cl)c(Cl)c3)ncnc2cc1OCC1CN(C)CCO1` (stereo not shown) [compound 57802593], for which the IC50 in the data set on any gene target (Table 3) and at VEGFR2 (setting [1]) was 50 nM in each case.
`COc1cc2c(Nc3ccc(Cl)c(Cl)c3)ncnc2cc1OCC1CN(CC(N)=O)CCO1` (stereo not shown) [compound 57802603]: the IC50 in the data set with any gene target (Table 3) and at VEGFR2 (setting [1]) was 50 nM each time.
On to `COc1cc2c(Nc3ccc(Cl)c(Cl)c3)ncnc2cc1OCc1nc(N2CCN(C)CC2)no1` [compound 57802605], for which the IC50 in the data set with any gene target (Table 3) and on VEGFR2 (setting [1]) was 50 nM in each case.
For the molecule `COc1cc2c(Nc3ccc(Cl)c(Cl)c3)ncnc2cc1OCc1csc(C2CCCN(C)C2)n1` (stereo not shown) [compound 57802607], the IC50 in the data set on any gene target (Table 3) and on VEGFR2 (setting [1]) was 50 nM each time.
As for `COc1cc2c(Nc3ccc(Cl)c(Cl)c3)ncnc2cc1OCC1CN(CCCCCC#N)CCO1` (stereo not shown) [compound 57802611], the IC50 in the data set with any gene target (Table 3) and at VEGFR2 (setting [1]) was 50 nM in each case.
Turning to `CCN1CCCOC(COc2cc3ncnc(Nc4ccc(Cl)c(Cl)c4)c3cc2OC)C1` (stereo not shown) [compound 57802623], the IC50 with any gene target (Table 3) and at VEGFR2 (setting [1]) was 50 nM each time.
Turning to `COc1cc2c(Nc3ccc(Cl)c(Cl)c3)ncnc2cc1OCCC1CNC(C)(C)CO1` (stereo not shown) [compound 57802637], the IC50 in the data set on any gene target and on VEGFR2 was 50 nM each time.
In the case of `COc1cc2c(Nc3ccc(Cl)c(Cl)c3F)ncnc2cc1OC[C@@H]1CN(C)CC(=O)N1` [compound 57802639], the IC50 with any gene target (Table 3) and at VEGFR2 (setting [1]) was 50 nM each time.
On to `COc1cc2c(Nc3ccc(Cl)c(Cl)c3)ncnc2cc1OCC1CC1` [compound 57802643], for which the IC50 in the data set on any gene target and on VEGFR2 was 50 nM in each case.
On to `COc1cc2c(Nc3ccc(F)c(Cl)c3F)ncnc2cc1OCC1CN(C)C(C)(C)CO1` (stereo not shown) [compound 57802650], for which the IC50 in the data set with any gene target and at VEGFR2 was 50 nM throughout.
As to `COc1cc2c(Nc3ccc(Cl)c(Cl)c3F)ncnc2cc1OCC1CN(C)C(C)(C)CO1` (stereo not shown) [compound 57802653], the IC50 in the data set on any gene target and on VEGFR2 was 50 nM throughout.
Consider `COc1cc2c(Nc3ccc(Cl)c(Cl)c3)ncnc2cc1OCC1CN(S(=O)(=O)CCCCl)CCO1` (stereo not shown) [compound 57802656], for which the IC50 in the data set on any gene target and on VEGFR2 was 50 nM throughout.
Take `COc1cc2c(Nc3ccc(Cl)c(Cl)c3)ncnc2cc1OCC1CN(C)C(C)(C)CO1` (stereo not shown) [compound 57802660]: the IC50 with any gene target and at VEGFR2 was 50 nM in each case.
Turning to `COc1cc2c(Nc3ccc(Br)c(Cl)c3Cl)ncnc2cc1OCC1CN(C)CCO1` (stereo not shown) [compound 57802669], the IC50 in the data set on any gene target and on VEGFR2 was 50 nM each time.
`CCCN1CCCOC(COc2cc3ncnc(Nc4ccc(Cl)c(Cl)c4)c3cc2OC)C1` (stereo not shown) [compound 57802675]: the IC50 in the data set on any gene target and on VEGFR2 was 50 nM in each case.
Take `COc1cc2c(Nc3ccc(Cl)c(Cl)c3)ncnc2cc1OC[C@@H]1CN2CCC[C@H]2CO1` [compound 57802678]: the IC50 in the data set on any gene target and at VEGFR2 was 50 nM each time.
Take `COc1cc2c(Nc3ccc(Cl)c(Cl)c3)ncnc2cc1OCc1nc(N2CCNCC2)no1` [compound 57802679]: the IC50 in the data set with any gene target and on VEGFR2 was 50 nM in each case.
Regarding `COc1cc2c(Nc3ccc(F)c(Cl)c3F)ncnc2cc1OCC1CN(C)CCO1` (stereo not shown) [compound 57802680], the IC50 in the data set on any gene target and at VEGFR2 was 50 nM each time.
Take `COc1cc2c(Nc3ccc(Cl)c(Cl)c3)ncnc2cc1OCC1CN(C(=O)c2cccnc2Cl)CCO1` (stereo not shown) [compound 57802694]: the IC50 in the data set with any gene target and at VEGFR2 was 50 nM in each case.
`CCOc1cc2c(Nc3ccc(Cl)c(Cl)c3)ncnc2cc1OCC1CN(C)CCO1` (stereo not shown) [compound 57802695]: the IC50 in the data set with any gene target and on VEGFR2 was 50 nM in each case.
Take `COc1cc2c(Nc3ccc(Cl)c(Cl)c3)ncnc2cc1OCC1CN2CSC[C@H]2CO1` (stereo partly shown) [compound 57802698]: the IC50 in the data set with any gene target and on VEGFR2 was 50 nM in each case.
Consider `CCOc1cc2c(Nc3ccc(Cl)c(Cl)c3)ncnc2cc1OCC1CNCCO1` (stereo not shown) [compound 57802713], for which the IC50 in the data set with any gene target and on VEGFR2 was 50 nM in each case.
Take `COc1cc2c(Nc3ccc(Br)c(Cl)c3F)ncnc2cc1OC[C@@H]1CN(C)CC(=O)N1C` [compound 57802721]: the IC50 in the data set with any gene target and on VEGFR2 was 50 nM throughout.
For the molecule `COc1cc2c(Nc3ccc(Br)c(Cl)c3Cl)ncnc2cc1OC[C@@H]1CN2CCC[C@H]2CO1` [compound 57802722], the IC50 in the data set on any gene target and on VEGFR2 was 50 nM throughout.
Regarding `COc1cc2c(Nc3ccc(Cl)c(Cl)c3)ncnc2cc1OCC1CN(C(C)=O)CCCO1` (stereo not shown) [compound 57802725], the IC50 in the data set on any gene target and at VEGFR2 was 50 nM throughout.
Consider `COc1cc2c(Nc3ccc(Cl)c(Cl)c3)ncnc2cc1OCCC1CN(C)CC(C)(C)O1` (stereo not shown) [compound 57802732], for which the IC50 with any gene target and at VEGFR2 was 50 nM each time.
Take `COc1cc2c(Nc3ccc(Cl)c(Cl)c3)ncnc2cc1OCC1CN(C(=NC#N)N2CCCCC2)CCO1` (stereo not shown) [compound 57802736]: the IC50 with any gene target and on VEGFR2 was 50 nM throughout.
On to `CCN1CCOC(COc2cc3ncnc(Nc4ccc(Cl)c(Cl)c4)c3cc2OC)C1` (stereo not shown) [compound 57802737], for which the IC50 with any gene target and at VEGFR2 was 50 nM throughout.
As to `COc1cc2c(Nc3ccc(Br)c(Cl)c3F)ncnc2cc1OCC1CN(C)C(C)(C)CO1` (stereo not shown) [compound 57802747], the IC50 in the data set on any gene target and at VEGFR2 was 50 nM each time.
As for `COc1cc2c(Nc3ccc(Cl)c(Cl)c3)ncnc2cc1OCCN1C(=O)c2ccccc2C1=O` [compound 57802754], the IC50 in the data set on any gene target and at VEGFR2 was 50 nM in each case.
Take `COc1cc2c(Nc3ccc(Br)c(Cl)c3)ncnc2cc1OCC1CN(C)CCO1` (stereo not shown) [compound 57802766]: the IC50 in the data set on any gene target and at VEGFR2 was 50 nM each time.
Take `COc1cc2c(Nc3cc(Cl)c(Br)cc3F)ncnc2cc1OCC1CN(C)C(C)(C)CO1` (stereo not shown) [compound 57802776]: the IC50 in the data set on any gene target and at VEGFR2 was 50 nM throughout.
Consider `COc1cc2c(Nc3ccc(C)c(Cl)c3Cl)ncnc2cc1OCC1CN(C)CCO1` (stereo not shown) [compound 57802779], for which the IC50 with any gene target and at VEGFR2 was 50 nM throughout.
